# From PMC7156724, “Potent BRD4 inhibitor suppresses cancer cell-macrophage interaction” (Nature Communications, 2020)
# Where “and” joins values, the source holds several entries; their conditions need not be identical. Identical values can stand only once.
# Assays:
# [1] = molecular target: T1, human Ether-à-go-go related gene (hERG) channel (Homo sapiens, UniProt Q12809); experiment: hERG channel assay, manual patch-clamp; assay type: cell-based; settings: HEK293 cells stably transfected with hERG, read-out: IC50, inhibition of hERG channel
# T1 construct: host or cells: HEK293, stably transfected, expression induced with doxycycline
# T1 sequence (Q12809 whole entry): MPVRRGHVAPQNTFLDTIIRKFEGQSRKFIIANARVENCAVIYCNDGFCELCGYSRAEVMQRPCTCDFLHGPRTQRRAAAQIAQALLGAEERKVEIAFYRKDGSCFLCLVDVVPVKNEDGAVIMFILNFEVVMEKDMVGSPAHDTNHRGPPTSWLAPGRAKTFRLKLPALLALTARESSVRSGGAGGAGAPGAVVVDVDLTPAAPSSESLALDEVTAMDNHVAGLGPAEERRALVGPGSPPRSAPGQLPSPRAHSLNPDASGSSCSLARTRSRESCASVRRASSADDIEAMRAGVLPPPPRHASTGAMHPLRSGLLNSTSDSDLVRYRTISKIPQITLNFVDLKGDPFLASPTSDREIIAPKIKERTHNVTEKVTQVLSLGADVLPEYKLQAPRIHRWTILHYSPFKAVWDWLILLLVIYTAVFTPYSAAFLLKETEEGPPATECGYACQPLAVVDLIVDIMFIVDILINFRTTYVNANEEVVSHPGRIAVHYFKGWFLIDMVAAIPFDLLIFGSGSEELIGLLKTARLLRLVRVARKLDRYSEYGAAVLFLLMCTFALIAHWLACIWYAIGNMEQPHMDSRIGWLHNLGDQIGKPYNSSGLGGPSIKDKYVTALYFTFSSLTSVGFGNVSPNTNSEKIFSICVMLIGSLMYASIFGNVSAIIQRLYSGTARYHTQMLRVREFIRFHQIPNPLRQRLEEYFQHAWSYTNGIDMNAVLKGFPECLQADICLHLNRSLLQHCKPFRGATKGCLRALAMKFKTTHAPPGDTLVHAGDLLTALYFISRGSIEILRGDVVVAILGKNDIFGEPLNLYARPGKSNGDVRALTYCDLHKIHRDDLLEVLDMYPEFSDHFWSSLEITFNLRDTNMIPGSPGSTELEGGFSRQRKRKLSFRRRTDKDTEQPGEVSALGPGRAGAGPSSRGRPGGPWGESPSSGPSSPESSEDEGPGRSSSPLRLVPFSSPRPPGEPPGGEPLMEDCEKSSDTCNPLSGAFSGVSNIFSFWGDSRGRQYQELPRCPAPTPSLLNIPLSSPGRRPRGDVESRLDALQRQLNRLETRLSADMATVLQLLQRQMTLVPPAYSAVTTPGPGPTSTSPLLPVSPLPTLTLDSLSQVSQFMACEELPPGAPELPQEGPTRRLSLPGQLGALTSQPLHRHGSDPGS
# Experimental: calculated concentration on the dialysate side of the membrane; T0 = To t a l compound concentration as determined before dialysis. Good plasma stability should have a value of not less than 80% bound, and the recovery rate should be […]
# 9. In vivo pharmacokinetics study. Mouse and SD rat models were used to evaluate pharmacokinetic property of NHWD-870. NHWD-870 was administrated by either intravenous injection (IV, 1.75 mg/kg for mouse and 1 mg/kg for rat) or oral gavage (PO, 5 mg/kg) into mice or rats. Concentration of drugs in plasma, lung and tumor tissues were measured for the indicated time.
# 10. hERG channel assay. The potential inhibitory effect of NHWD-870 on human Ether-à-go-go related gene (hERG) channel was evaluated by manual patch-clamp system using the protocols described below. HEK293 cell line stably
# B16F10 mouse melanoma = B16F10 mouse melanoma syngeneic model tumor growth; assay type: in vivo, C57BL/6 mice; settings: B16F10 mouse melanoma, once daily 11 days, NHWD-870-HCl
# Description: PO, oral administration; QD, once daily; BID, twice daily. b–d Tumor growth curves for A2780 ovarian tumor (n = 5) (b), TMD8 large B cell lymphoma (n = 6) (c), and B16F10 melanoma (n = 5) (d) bearing mice treated with the indicated compounds once daily for 11-21 days. e, f Tumor growth curves for A375 melanoma (n = 6) (e), and patient-derived xenograft (PDX) of melanoma (n = 5) (f) bearing mice treated with the indicated compounds once daily (5 days on, 2 days off) for 21 days. For d–f, NHWD-870 used is NHWD-870-HCl synthesized using Suzuki coupling route. Data are presented as mean ± SEM in (a, b, d, f) and mean + SEM in (c, e). p values were calculated using two-tailed, unpaired t tests. *p < 0.05; **p < 0.01; ***p < 0.001. Source data are provided as a Source Data file.
# 4–6 weeks old female BALB/c nude mice were used for most experiments, with the exception of 6–8 weeks old female C57BL/6 mice were used for B16F10 experiments, and 6–8 weeks old male BALB/c nude mice and SD rats were used for pharmacokinetic experiments. All animals were purchased from Shanghai SIPPR-Bk Lab Animal Co., Ltd. All animals were housed under a regimen of 12 h light/12 h dark cycles and specific pathogen-free conditions. 5×10^6 NCI-H526, ES-2, MDA-MB231, A2780, A375, B16F10, and TMD-8 cells (0.1 ml) were injected subcutaneously into female nude mice. The melanoma patient-derived xenograft model was derived from a human melanoma sample (BRAF, NARS and NF1 wild type, and p53 mutant) removed from a patient in Xiangya Hospital. Surgically removed tumor fragments were implanted subcutaneously into female NSG mice. When the tumors grew to ~1000 mm^3, they were harvested and cryopreserved or immediately re-implanted for expansion or experiments. Mouse body weight and tumor sizes were measured every 3 days. Once the tumors grew to 150–200 mm^3, mice were treated with the compounds as described in the Figures. 1 × 10^6 A2780 cells (1 ml) were injected into the abdominal cavity of nude mice. Ascitic volume and tumor weight were measured by an electronic balance. All the procedures were evaluated and approved by the Institutional Animal Care and Use Committee of Central South University and Yale University.
# CSF1 protein = experiment: ELISA of CSF1 protein in supernatant of human tumor cells (A2780, SKOV3, A375); assay type: cell-based; settings: 10^6 A375 cells, 25 nM, 24 h
# Experimental: A2780 tumor cells were pretreated with 100 nM NHWD-870 and then directly co-cultured with TAMs (A2780:TAMs ratio as 4:1) at the density of 1 × 10^5 total cells in a 12-well. Shown are immunofluorescent staining of Ki67 and CD68 (a) and quantification of Ki67+ and CD68− or CD68+ cells (b). Scale bar is 50 μm. […] A2780 cells (pre-treated with or without 100 nM NHWD-870 for 48 h) were seeded into the top chamber (transwell size: 0.4 μm) and TAMs (Mac, 40,000 cells per 24-well) in medium containing 2% matrigel were seeded into the bottom chamber pre-coated with Matrigel. No NHWD-870 was added to the co-culture. The upper chamber without A2780 cells was used as a control. Shown are schematics of transwell co-culture experiment (c), representative pictures of TAM spheroid (d: black/white), and quantification of spheroid volumes (e). Scale bar is 50 μm. […] Data are presented as mean ± SEM from three independent experiments. g CSF1 protein levels in supernatant of 10^6 ID8, B16, A2780, SKOV3, and A375 cells treated with DMSO or 25 nM NHWD-870 for 24 h, as measured by ELISA. […] Scale bar is 20 μm. i Quantification of CSF1 staining in DMSO or 100 nM NHWD-870 treated A2780 cells. […] Shown are representative immunofluorescent staining of CSF1 (green) and CD68 (red) (j) and quantification of CSF1 staining (k). […]
smiles,measurement,setting,value
Cc1nnn(C)c1-c1cnc2c3c4cnn(C)c4ccc3n([C@H](c3ccccc3)C3CCOCC3)c2c1 [NHWD-870],IC50,[1],5.4 µM
same,effect on tumor growth,B16F10 mouse melanoma,very strong tumor inhibitive effects
same,CSF1 protein levels in supernatant (ELISA),CSF1 protein,26 and 36 and 31
